Numbers after ± are expanded uncertainties.
Conditions: Liquid; for mass density: Vibrating tube method; for viscosity: Concentric cylinders viscometry

CCCC[n+]1ccc(C)cc1.F[B-](F)(F)F [1-butyl-4-methylpyridinium tetrafluoroborate]
mass density (278.16 K, 101.33 kPa): 1202.41 ± 2.7 kg/m3 | mass density (283.13 K, 2389 kPa): 1200.77 ± 2.2 kg/m3 | mass density (283.14 K, 99418 kPa): 1237.54 ± 2.9 kg/m3 | viscosity (283.15 K, 101.33 kPa): 765.72 ± 41 mPa·s | mass density (283.15 K, 60042 kPa): 1223.77 ± 2.6 kg/m3 | mass density (283.15 K, 79648 kPa): 1230.82 ± 2.7 kg/m3 | mass density (283.15 K, 89923 kPa): 1234.36 ± 2.8 kg/m3 | mass density (283.16 K, 49953 kPa): 1219.99 ± 2.5 kg/m3 | mass density (283.16 K, 69924 kPa): 1227.37 ± 2.6 kg/m3 | mass density (283.17 K, 101.33 kPa): 1198.9 ± 2.7 kg/m3 | mass density (283.17 K, 20156 kPa): 1208.22 ± 2.3 kg/m3 | mass density (283.17 K, 29957 kPa): 1212.19 ± 2.4 kg/m3 | mass density (283.17 K, 39808 kPa): 1216.08 ± 2.5 kg/m3 | mass density (283.2 K, 5533 kPa): 1202.11 ± 2.3 kg/m3 | mass density (283.2 K, 10148 kPa): 1204.06 ± 2.3 kg/m3 | mass density (293.13 K, 2593 kPa): 1194.15 ± 2.2 kg/m3 | mass density (293.14 K, 99354 kPa): 1231.77 ± 2.8 kg/m3 | viscosity (293.15 K, 101.33 kPa): 338.59 ± 16 mPa·s | mass density (293.15 K, 69958 kPa): 1221.46 ± 2.6 kg/m3 | mass density (293.15 K, 79965 kPa): 1225.08 ± 2.7 kg/m3 | mass density (293.15 K, 90001 kPa): 1228.6 ± 2.8 kg/m3 | mass density (293.16 K, 101.33 kPa): 1191.79 ± 2.6 kg/m3 | mass density (293.16 K, 5220 kPa): 1195.31 ± 2.2 kg/m3 | mass density (293.16 K, 49933 kPa): 1213.87 ± 2.5 kg/m3 | mass density (293.16 K, 59929 kPa): 1217.71 ± 2.6 kg/m3 | mass density (293.17 K, 10236 kPa): 1197.5 ± 2.3 kg/m3 | mass density (293.17 K, 19941 kPa): 1201.67 ± 2.3 kg/m3 | mass density (293.17 K, 29914 kPa): 1205.84 ± 2.4 kg/m3 | mass density (293.17 K, 39693 kPa): 1209.82 ± 2.4 kg/m3 | mass density (298.13 K, 101.33 kPa): 1188.41 ± 2.6 kg/m3 | viscosity (298.15 K, 101.33 kPa): 236.97 ± 11 mPa·s | mass density (298.15 K, 1003 kPa): 1190.06 ± 2.2 kg/m3 | mass density (298.15 K, 5005 kPa): 1191.86 ± 2.2 kg/m3 | mass density (298.15 K, 10002 kPa): 1194.09 ± 2.3 kg/m3 | mass density (298.15 K, 19998 kPa): 1198.45 ± 2.3 kg/m3 | mass density (298.15 K, 29945 kPa): 1202.67 ± 2.4 kg/m3 | mass density (298.15 K, 39923 kPa): 1206.79 ± 2.4 kg/m3 | mass density (298.15 K, 49991 kPa): 1210.83 ± 2.5 kg/m3 | mass density (298.15 K, 60002 kPa): 1214.72 ± 2.5 kg/m3 | mass density (298.15 K, 70001 kPa): 1218.49 ± 2.6 kg/m3 | mass density (298.15 K, 79994 kPa): 1222.14 ± 2.7 kg/m3 | mass density (298.15 K, 90002 kPa): 1225.68 ± 2.8 kg/m3 | mass density (298.15 K, 99998 kPa): 1229.1 ± 2.8 kg/m3 | viscosity (303.15 K, 101.33 kPa): 171.04 ± 7.5 mPa·s | mass density (313.13 K, 101.33 kPa): 1178.11 ± 2.6 kg/m3 | viscosity (313.15 K, 101.33 kPa): 96.18 ± 4 mPa·s | mass density (313.15 K, 59740 kPa): 1205.47 ± 2.5 kg/m3 | mass density (313.16 K, 2707 kPa): 1180.63 ± 2.2 kg/m3 | mass density (313.16 K, 20303 kPa): 1188.77 ± 2.3 kg/m3 | mass density (313.16 K, 29913 kPa): 1193.03 ± 2.3 kg/m3 | mass density (313.16 K, 49943 kPa): 1201.51 ± 2.5 kg/m3 | mass density (313.16 K, 69933 kPa): 1209.44 ± 2.6 kg/m3 | mass density (313.16 K, 89952 kPa): 1216.83 ± 2.7 kg/m3 | mass density (313.16 K, 99473 kPa): 1220.15 ± 2.8 kg/m3 | mass density (313.17 K, 5339 kPa): 1181.88 ± 2.2 kg/m3 | mass density (313.17 K, 10173 kPa): 1184.14 ± 2.2 kg/m3 | mass density (313.17 K, 39937 kPa): 1197.34 ± 2.4 kg/m3 | mass density (313.17 K, 79710 kPa): 1213.11 ± 2.6 kg/m3 | viscosity (323.15 K, 101.33 kPa): 58.53 ± 2.4 mPa·s | mass density (333.13 K, 1547 kPa): 1166.3 ± 2.2 kg/m3 | mass density (333.13 K, 39448 kPa): 1184.41 ± 2.4 kg/m3 | mass density (333.14 K, 101.33 kPa): 1164.59 ± 2.6 kg/m3 | mass density (333.14 K, 49914 kPa): 1188.99 ± 2.4 kg/m3 | mass density (333.14 K, 60043 kPa): 1193.26 ± 2.5 kg/m3 | viscosity (333.15 K, 101.33 kPa): 38.29 ± 1.6 mPa·s | mass density (333.15 K, 5146 kPa): 1168.12 ± 2.2 kg/m3 | mass density (333.15 K, 29917 kPa): 1180.08 ± 2.3 kg/m3 | mass density (333.15 K, 69942 kPa): 1197.26 ± 2.5 kg/m3 | mass density (333.16 K, 19866 kPa): 1175.35 ± 2.2 kg/m3 | mass density (333.16 K, 79463 kPa): 1200.96 ± 2.6 kg/m3 | mass density (333.16 K, 89996 kPa): 1204.89 ± 2.6 kg/m3 | mass density (333.17 K, 9837 kPa): 1170.46 ± 2.2 kg/m3 | mass density (333.17 K, 99595 kPa): 1208.3 ± 2.7 kg/m3 | mass density (343.14 K, 101.33 kPa): 1157.92 ± 2.5 kg/m3 | viscosity (343.15 K, 101.33 kPa): 26.48 ± 1.1 mPa·s | mass density (353.13 K, 59133 kPa): 1180.36 ± 2.4 kg/m3 | mass density (353.14 K, 2498 kPa): 1152.85 ± 2.1 kg/m3 | mass density (353.14 K, 5035 kPa): 1154.22 ± 2.1 kg/m3 | mass density (353.14 K, 9690 kPa): 1156.69 ± 2.2 kg/m3 | mass density (353.14 K, 20367 kPa): 1162.21 ± 2.2 kg/m3 | mass density (353.14 K, 29942 kPa): 1166.97 ± 2.3 kg/m3 | mass density (353.14 K, 39870 kPa): 1171.71 ± 2.3 kg/m3 | mass density (353.14 K, 49991 kPa): 1176.35 ± 2.4 kg/m3 | mass density (353.14 K, 70001 kPa): 1184.93 ± 2.5 kg/m3 | viscosity (353.15 K, 101.33 kPa): 19.17 ± 0.79 mPa·s | mass density (353.15 K, 89993 kPa): 1192.71 ± 2.6 kg/m3 | mass density (353.16 K, 79945 kPa): 1188.9 ± 2.5 kg/m3 | mass density (353.16 K, 98529 kPa): 1195.8 ± 2.6 kg/m3 | viscosity (363.15 K, 101.33 kPa): 14.41 ± 0.6 mPa·s | mass density (373.13 K, 59930 kPa): 1168.03 ± 2.4 kg/m3 | mass density (373.14 K, 2866 kPa): 1138.93 ± 2.1 kg/m3 | mass density (373.14 K, 40385 kPa): 1158.91 ± 2.3 kg/m3 | mass density (373.14 K, 49993 kPa): 1163.5 ± 2.3 kg/m3 | mass density (373.14 K, 69984 kPa): 1172.37 ± 2.4 kg/m3 | viscosity (373.15 K, 101.33 kPa): 11.19 ± 0.46 mPa·s | mass density (373.15 K, 5031 kPa): 1140.17 ± 2.1 kg/m3 | mass density (373.15 K, 29936 kPa): 1153.67 ± 2.2 kg/m3 | mass density (373.15 K, 79614 kPa): 1176.31 ± 2.5 kg/m3 | mass density (373.15 K, 90002 kPa): 1180.33 ± 2.5 kg/m3 | mass density (373.15 K, 99124 kPa): 1183.64 ± 2.6 kg/m3 | mass density (373.16 K, 9772 kPa): 1142.85 ± 2.1 kg/m3 | mass density (373.17 K, 20168 kPa): 1148.55 ± 2.2 kg/m3 | mass density (393.14 K, 99382 kPa): 1171.13 ± 2.5 kg/m3 | mass density (393.15 K, 10459 kPa): 1129.2 ± 2.1 kg/m3 | mass density (393.15 K, 20029 kPa): 1134.74 ± 2.1 kg/m3 | mass density (393.15 K, 90001 kPa): 1167.72 ± 2.5 kg/m3 | mass density (393.16 K, 2068 kPa): 1124.13 ± 2.1 kg/m3 | mass density (393.16 K, 5306 kPa): 1126.11 ± 2.1 kg/m3 | mass density (393.16 K, 29942 kPa): 1140.22 ± 2.2 kg/m3 | mass density (393.17 K, 39803 kPa): 1145.4 ± 2.2 kg/m3 | mass density (393.17 K, 49942 kPa): 1150.46 ± 2.3 kg/m3 | mass density (393.17 K, 70000 kPa): 1159.64 ± 2.4 kg/m3 | mass density (393.17 K, 80173 kPa): 1163.89 ± 2.4 kg/m3 | mass density (393.18 K, 59764 kPa): 1155.09 ± 2.3 kg/m3

— the NIST ThermoML archive (doi:10.1016/j.jct.2012.02.018)
